According to ChEMBL document CHEMBL2417377, “Hit-to-lead optimization and kinase selectivity of imidazo[1,2-a]quinoxalin-4-amine derived JNK1 inhibitors” (Bioorg Med Chem Lett, 2013):

Assays:
[1] = molecular target: Cyclin-dependent kinase 8 (Homo sapiens) (UniProt P49336); test: Inhibition of CDK8 in human PC3 cell lysates at 10 uM using desthiobiotin-tagged ATP probe AX9989 followed by trypsinization by LC/MS analysis; settings: PC-3
[2] = Inhibition of PITSLRE in human PC3 cell lysates at 10 uM using desthiobiotin-tagged ATP probe AX9989 followed by trypsinization by LC/MS analysis; format: cell-free; settings: PC-3
[3] = molecular target: Cyclin-dependent kinase 9 (Homo sapiens) (UniProt P50750); test: Inhibition of CDK9 in human PC3 cell lysates at 10 uM using desthiobiotin-tagged ATP probe AX9989 followed by trypsinization by LC/MS analysis; settings: PC-3
[4] = molecular target: Epidermal growth factor receptor (Homo sapiens) (UniProt P00533); test: Inhibition of EGFR in human PC3 cell lysates at 10 uM using desthiobiotin-tagged ATP probe AX9989 followed by trypsinization by LC/MS analysis; settings: PC-3
[5] = molecular target: T1, SNF-related serine/threonine-protein kinase (Homo sapiens) (UniProt Q9NRH2); test: Inhibition of SNRK in human PC3 cell lysates at 10 uM using desthiobiotin-tagged ATP probe AX9989 followed by trypsinization by LC/MS analysis; settings: PC-3
T1 sequence (whole entry): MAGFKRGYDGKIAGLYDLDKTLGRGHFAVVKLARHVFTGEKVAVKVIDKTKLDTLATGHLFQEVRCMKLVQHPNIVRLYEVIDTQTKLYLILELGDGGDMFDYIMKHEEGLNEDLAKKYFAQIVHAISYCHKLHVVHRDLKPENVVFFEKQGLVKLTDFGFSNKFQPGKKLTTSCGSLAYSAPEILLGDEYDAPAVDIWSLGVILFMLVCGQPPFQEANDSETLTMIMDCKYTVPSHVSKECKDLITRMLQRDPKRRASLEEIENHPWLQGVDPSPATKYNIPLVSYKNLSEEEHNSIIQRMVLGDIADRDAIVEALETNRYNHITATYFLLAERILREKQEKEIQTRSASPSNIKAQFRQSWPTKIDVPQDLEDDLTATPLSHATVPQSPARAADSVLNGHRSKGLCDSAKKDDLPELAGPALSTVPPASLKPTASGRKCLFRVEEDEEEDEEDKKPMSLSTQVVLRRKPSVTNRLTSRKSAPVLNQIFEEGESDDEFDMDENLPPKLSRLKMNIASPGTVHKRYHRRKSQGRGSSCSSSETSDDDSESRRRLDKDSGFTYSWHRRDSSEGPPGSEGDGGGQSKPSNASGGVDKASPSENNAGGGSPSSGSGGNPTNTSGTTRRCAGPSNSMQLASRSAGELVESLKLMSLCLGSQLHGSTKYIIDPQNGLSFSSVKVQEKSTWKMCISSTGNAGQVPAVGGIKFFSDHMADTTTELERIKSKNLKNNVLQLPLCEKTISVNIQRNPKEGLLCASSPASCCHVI

[6] = test system: PC-3; test: Inhibition of KHS2 in human PC3 cell lysates at 10 uM using desthiobiotin-tagged ATP probe AX9989 followed by trypsinization by LC/MS analysis; format: cell-free
[7] = molecular target: T2, Mitogen-activated protein kinase kinase kinase 3 (Homo sapiens) (UniProt Q99759); test: Inhibition of MAP3K3 in human PC3 cell lysates at 10 uM using desthiobiotin-tagged ATP probe AX9989 followed by trypsinization by LC/MS analysis; settings: PC-3
T2 sequence (whole entry): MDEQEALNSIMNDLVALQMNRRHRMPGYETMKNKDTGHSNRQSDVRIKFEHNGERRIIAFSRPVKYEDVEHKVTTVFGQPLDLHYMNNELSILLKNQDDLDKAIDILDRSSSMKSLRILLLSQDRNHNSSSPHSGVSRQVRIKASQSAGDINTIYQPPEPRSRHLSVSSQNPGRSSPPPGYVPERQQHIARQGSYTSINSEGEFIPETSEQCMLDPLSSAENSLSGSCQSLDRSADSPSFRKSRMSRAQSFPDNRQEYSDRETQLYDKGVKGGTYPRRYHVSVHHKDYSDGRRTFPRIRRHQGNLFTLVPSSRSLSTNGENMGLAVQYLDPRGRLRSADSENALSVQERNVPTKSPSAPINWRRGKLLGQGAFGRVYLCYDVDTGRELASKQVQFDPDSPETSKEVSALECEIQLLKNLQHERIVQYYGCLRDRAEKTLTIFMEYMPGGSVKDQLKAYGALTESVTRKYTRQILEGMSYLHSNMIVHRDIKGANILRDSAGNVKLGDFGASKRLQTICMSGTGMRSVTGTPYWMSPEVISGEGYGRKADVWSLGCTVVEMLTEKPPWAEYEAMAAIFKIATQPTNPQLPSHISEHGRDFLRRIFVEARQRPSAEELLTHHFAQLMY

[8] = molecular target: Cyclin-dependent kinase 2 (Homo sapiens) (UniProt P24941); test: Inhibition of CDK2 in human PC3 cell lysates at 10 uM using desthiobiotin-tagged ATP probe AX9989 followed by trypsinization by LC/MS analysis; settings: PC-3
[9] = molecular target: T3, Peripheral plasma membrane protein CASK (Homo sapiens) (UniProt O14936); test: Inhibition of CASK in human PC3 cell lysates at 10 uM using desthiobiotin-tagged ATP probe AX9989 followed by trypsinization by LC/MS analysis; settings: PC-3
T3 sequence (whole entry): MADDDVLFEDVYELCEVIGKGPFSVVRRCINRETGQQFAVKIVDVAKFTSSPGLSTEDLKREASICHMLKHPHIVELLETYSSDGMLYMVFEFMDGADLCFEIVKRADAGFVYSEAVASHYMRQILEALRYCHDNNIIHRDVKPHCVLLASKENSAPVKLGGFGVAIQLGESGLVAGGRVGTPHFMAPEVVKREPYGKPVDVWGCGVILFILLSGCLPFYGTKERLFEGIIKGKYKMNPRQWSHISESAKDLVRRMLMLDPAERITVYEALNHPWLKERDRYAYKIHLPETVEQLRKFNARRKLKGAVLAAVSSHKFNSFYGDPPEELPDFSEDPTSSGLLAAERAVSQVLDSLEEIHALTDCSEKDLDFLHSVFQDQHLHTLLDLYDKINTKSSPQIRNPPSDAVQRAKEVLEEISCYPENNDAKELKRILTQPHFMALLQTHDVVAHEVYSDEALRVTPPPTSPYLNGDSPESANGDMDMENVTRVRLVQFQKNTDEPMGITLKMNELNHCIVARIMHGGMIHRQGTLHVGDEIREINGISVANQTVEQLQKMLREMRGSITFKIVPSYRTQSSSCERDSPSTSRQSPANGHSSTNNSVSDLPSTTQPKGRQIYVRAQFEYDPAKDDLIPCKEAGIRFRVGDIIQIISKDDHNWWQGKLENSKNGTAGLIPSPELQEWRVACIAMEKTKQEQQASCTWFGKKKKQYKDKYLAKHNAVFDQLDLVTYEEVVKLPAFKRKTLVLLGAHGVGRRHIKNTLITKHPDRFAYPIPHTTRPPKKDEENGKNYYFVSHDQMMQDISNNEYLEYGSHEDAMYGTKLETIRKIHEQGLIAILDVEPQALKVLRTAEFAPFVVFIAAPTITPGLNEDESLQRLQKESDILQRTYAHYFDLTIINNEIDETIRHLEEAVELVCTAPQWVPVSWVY

Sequence of Epidermal growth factor receptor (Homo sapiens) (P00533 whole entry): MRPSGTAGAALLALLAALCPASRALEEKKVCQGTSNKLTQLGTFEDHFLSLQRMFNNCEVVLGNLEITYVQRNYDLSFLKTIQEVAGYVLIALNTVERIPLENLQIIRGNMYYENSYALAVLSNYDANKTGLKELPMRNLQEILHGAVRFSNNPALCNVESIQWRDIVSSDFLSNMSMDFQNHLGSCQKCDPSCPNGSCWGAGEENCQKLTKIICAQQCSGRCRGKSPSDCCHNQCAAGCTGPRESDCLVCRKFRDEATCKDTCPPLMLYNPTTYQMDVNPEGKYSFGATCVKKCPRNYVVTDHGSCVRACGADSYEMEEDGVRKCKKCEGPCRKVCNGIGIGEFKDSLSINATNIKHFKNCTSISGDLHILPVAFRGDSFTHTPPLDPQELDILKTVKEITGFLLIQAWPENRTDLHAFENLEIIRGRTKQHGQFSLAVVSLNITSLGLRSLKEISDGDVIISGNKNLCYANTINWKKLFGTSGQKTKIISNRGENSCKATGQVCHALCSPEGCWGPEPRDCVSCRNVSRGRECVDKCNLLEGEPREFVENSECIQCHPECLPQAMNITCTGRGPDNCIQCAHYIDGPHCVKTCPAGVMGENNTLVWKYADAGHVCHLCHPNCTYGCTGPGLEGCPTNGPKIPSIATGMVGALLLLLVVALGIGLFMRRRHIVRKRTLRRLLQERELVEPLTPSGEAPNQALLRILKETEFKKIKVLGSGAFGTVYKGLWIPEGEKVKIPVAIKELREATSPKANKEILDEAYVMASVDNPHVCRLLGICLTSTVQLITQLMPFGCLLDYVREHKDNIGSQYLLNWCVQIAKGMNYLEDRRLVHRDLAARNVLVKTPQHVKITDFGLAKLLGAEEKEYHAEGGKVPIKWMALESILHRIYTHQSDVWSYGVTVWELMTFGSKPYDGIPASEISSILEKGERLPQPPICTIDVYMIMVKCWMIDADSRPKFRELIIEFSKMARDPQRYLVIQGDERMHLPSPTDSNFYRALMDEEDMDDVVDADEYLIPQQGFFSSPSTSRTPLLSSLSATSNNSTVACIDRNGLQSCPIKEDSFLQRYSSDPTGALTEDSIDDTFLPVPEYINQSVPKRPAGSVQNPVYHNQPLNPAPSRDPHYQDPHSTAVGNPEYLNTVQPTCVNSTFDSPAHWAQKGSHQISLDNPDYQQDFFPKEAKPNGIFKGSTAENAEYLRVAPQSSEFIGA
Sequence of Cyclin-dependent kinase 9 (Homo sapiens) (P50750 whole entry): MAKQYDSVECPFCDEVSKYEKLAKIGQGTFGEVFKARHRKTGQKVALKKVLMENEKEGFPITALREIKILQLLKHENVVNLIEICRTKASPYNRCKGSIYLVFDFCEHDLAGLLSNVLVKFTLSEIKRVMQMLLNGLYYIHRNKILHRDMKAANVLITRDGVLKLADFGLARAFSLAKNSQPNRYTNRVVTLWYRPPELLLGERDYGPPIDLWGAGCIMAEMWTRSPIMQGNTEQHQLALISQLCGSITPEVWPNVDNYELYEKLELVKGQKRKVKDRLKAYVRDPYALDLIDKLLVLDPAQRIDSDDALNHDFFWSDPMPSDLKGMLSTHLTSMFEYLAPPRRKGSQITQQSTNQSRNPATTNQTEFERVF
Sequence of Cyclin-dependent kinase 8 (Homo sapiens) (P49336 whole entry): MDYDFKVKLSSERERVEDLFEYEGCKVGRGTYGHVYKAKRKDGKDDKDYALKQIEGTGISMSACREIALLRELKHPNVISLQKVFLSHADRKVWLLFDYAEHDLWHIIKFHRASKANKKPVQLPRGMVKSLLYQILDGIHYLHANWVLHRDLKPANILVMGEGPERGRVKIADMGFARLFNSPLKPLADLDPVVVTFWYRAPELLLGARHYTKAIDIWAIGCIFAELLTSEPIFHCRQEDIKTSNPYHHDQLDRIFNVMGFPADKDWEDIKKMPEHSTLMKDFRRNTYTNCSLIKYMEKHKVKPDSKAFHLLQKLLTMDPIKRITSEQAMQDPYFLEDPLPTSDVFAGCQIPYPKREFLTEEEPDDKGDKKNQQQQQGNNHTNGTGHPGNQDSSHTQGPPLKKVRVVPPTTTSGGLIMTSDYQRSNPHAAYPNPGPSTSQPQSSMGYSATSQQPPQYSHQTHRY

inhibition [1] [%] | inhibition [3] [%] | inhibition [4] [%] | inhibition [5] [%] | inhibition [7] [%] | inhibition [8] [%] | inhibition [9] [%] | SMILES | inhibition [2] [%] | inhibition [6] [%]
< 35 | < 35 | < 35 | < 35 | < 35 | < 35 | < 35 | O=C(NC1(Cc2ccc(F)cc2)CC1)c1ccc2nc(N[C@H]3CC[C@H](O)CC3)c3nccn3c2c1 | < 35 | < 35
< 35 | 49.8 | < 35 | < 35 | < 35 | < 35 | < 35 | O=C(NC1(c2ccccc2)CCC1)c1ccc2nc(N[C@H]3CC[C@H](O)CC3)c3nccn3c2c1 | < 35 | < 35
< 35 | 42 | < 35 | < 35 | < 35 | < 35 | < 35 | C[C@@H](NC(=O)c1ccc2nc(N[C@H]3CC[C@H](O)CC3)c3nccn3c2c1)c1ccccc1 | < 35 | < 35
< 35 | < 35 | < 35 | < 35 | < 35 | < 35 | < 35 | CC(C)(NC(=O)c1ccc2nc(N[C@H]3CC[C@H](O)CC3)c3nccn3c2c1)c1ccccc1 | < 35 | < 35

The remaining lines, values behind:

SMILES | inhibition [1] [%] | inhibition [3] [%] | inhibition [4] [%] | inhibition [5] [%] | inhibition [7] [%] | inhibition [8] [%] | inhibition [9] [%] | inhibition [2] [%] | inhibition [6] [%]
NC(=O)c1ccc2nc(N[C@H]3CC[C@H](O)CC3)c3nccn3c2c1 | < 35 | 98.6 | < 35 | < 35 | < 35 | < 35 | < 35 | 95.6 | < 35
CC[C@@H](NC(=O)c1ccc2nc(N[C@H]3CC[C@H](O)CC3)c3nccn3c2c1)c1ccccc1 | < 35 | < 35 | < 35 | < 35 | < 35 | < 35 | < 35 | < 35 | < 35
C[C@H](NC(=O)c1ccc2nc(N[C@H]3CC[C@H](O)CC3)c3nccn3c2c1)c1ccccc1 | < 35 | < 35 | < 35 | < 35 | < 35 | < 35 | < 35 | < 35 | < 35
O=C(N[C@H](CO)c1ccccc1)c1ccc2nc(N[C@H]3CC[C@H](O)CC3)c3nccn3c2c1 | < 35 | < 35 | < 35 | < 35 | < 35 | < 35 | < 35 | < 35 | < 35
O=C(NC1(c2ccccc2)CC1)c1ccc2nc(N[C@H]3CC[C@H](O)CC3)c3nccn3c2c1 | < 35 | < 35 | < 35 | < 35 | < 35 | < 35 | < 35 | < 35 | < 35
CCC[C@@H](NC(=O)c1ccc2nc(N[C@H]3CC[C@H](O)CC3)c3nccn3c2c1)c1ccccc1 | < 35 | < 35 | < 35 | < 35 | < 35 | < 35 | < 35 | < 35 | < 35
O=C(O)c1ccc2nc(N[C@H]3CC[C@H](O)CC3)c3nccn3c2c1 | < 35 | 97.9 | < 35 | < 35 | < 35 | 59.1 | < 35 | 99.3 | < 35
O=C(NC1(c2ccc(F)cc2)CC1)c1ccc2nc(N[C@H]3CC[C@H](O)CC3)c3nccn3c2c1 | < 35 | < 35 | < 35 | < 35 | < 35 | < 35 | < 35 | < 35 | < 35
